Results on 10 molecules are retold here after PubChem BioAssay (NCI).

Common to all, as to experiment: NCI anticancer screen, dose series, 48 h
Experiment [1] has as its system T-47D breast.
The test system of experiment [2] is HL-60(TB) leukemia.
Experiment [3] concerns HCT-116 colon.
In experiment [4] the test system is LOX IMVI melanoma.
In experiment [5] the test system is SNB-75 CNS.
For experiment [6], the system named is NCI-H23 lung.
Experiment [7] concerns NCI/ADR-RES ovarian.
The subject of experiment [8] is UACC-62 melanoma.
Experiment [9] has as its system RXF 393 renal.
For experiment [10], the system named is NCI-H226 lung.

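Dose response: 5 concentrations. Exposure: 48 h. Format: 96-well plates. Endpoint: linear interpolation; highest concentration if not reached. The concentration for 50% growth inhibition is given as GI50. At the TGI there is no net growth.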

Regarding `CN1CCN(c2nc(-c3csc(-c4cccs4)n3)cc3ccccc23)CC1`, the GI50 in experiment [1] is 1.85 µM; in experiment [2], 2.17 µM; in experiment [3] it was 1.76 µM; in experiment [4] it was 1.78 µM; in experiment [5], 1.36 µM; in experiment [6], 1.93 µM. The GI50 in experiment [7] was 1.93 µM; in experiment [8], 1.69 µM; in experiment [9], 1.78 µM. Also, the TGI in [1] is 4.56 µM; in [2] it was 4.71 µM; in experiment [3], 3.36 µM; in [4], 3.22 µM; in experiment [5], 2.91 µM; in experiment [6], 3.92 µM. Besides, the TGI in experiment [7] came to 3.92 µM; in experiment [8] it was 3.15 µM; in experiment [9], 3.9 µM.

For the molecule `CCC(C)C(=O)OCC(=O)c1ccc(-c2ccccc2)cc1` (stereo not drawn), the TGI in experiment [1], in experiment [2], in [3], in [4], in [5] and in [6] was over 100 µM throughout. The TGI in experiment [7] and in experiment [8] was over 100 µM in each case.

For the molecule `CC(C)(C)N/N=C(\C(=O)NC1=C(Cl)C(=O)c2ccccc2C1=O)C1C=CCS1(=O)=O` (stereo not drawn), the TGI was 37.8 µM in [1]; over 100 µM in experiment [2]; 35 µM in experiment [3]; 39.7 µM in experiment [4]; 24 µM in experiment [5]; 24.2 µM in experiment [6]. Also, the TGI was found to be 71.9 µM in experiment [7], 9.17 µM in experiment [8] and 27.9 µM in experiment [10].

Take `C/C(=N\NC(=S)N1CCCCCC1)c1cccc2cccnc12`: the TGI was 70.9 µM in experiment [1]; over 45.7 µM in experiment [2]; over 67.1 µM in [3]; 27.1 µM in [4]; over 91.6 µM in experiment [5]; 15.5 µM in experiment [6]. Besides, the TGI was 5.42 µM in experiment [7], 6.53 µM in [8] and over 100 µM in experiment [9].

As for `CC(=O)O[C@H]1CC[C@@]2(C)C(=C/C(=N/OCCN3CCCC3)[C@H]3[C@@H]4CC[C@H](OC(C)=O)[C@@]4(C)CC[C@@H]32)C1`, the GI50 in experiment [1] was 52.1 µM; in experiment [2] it was 23.3 µM; in [3], 27.8 µM; in experiment [4], 19.6 µM; in [5] it was 68 µM; in experiment [6] it was over 100 µM. For the same molecule, the figures for the GI50 in experiment [7], in experiment [8] and in experiment [10] were over 100 µM, 45.3 µM and over 100 µM, respectively. The TGI is over 100 µM in experiment [1]; 57.7 µM in experiment [2]; over 100 µM in [3]; 38.1 µM in experiment [4]; over 100 µM in [5]; over 100 µM in [6]. Moreover, the TGI in experiment [7], in experiment [8] and in experiment [10] was over 100 µM throughout.

On to `CCOc1ccc2c(c1)c(CC(=O)O)cn2C`, for which the TGI in experiment [1], in experiment [2], in experiment [3], in [4], in experiment [6] and in experiment [7] was over 100 µM in each case. Moreover, the TGI in experiment [8], in [9] and in [10] was over 100 µM in each case.

With `COC(=O)C(C(=O)OC)C(Br)C(Br)C(Br)c1ccccc1` (stereo not drawn), the GI50 was 2.03 µM in experiment [1]; 2.59 µM in [2]; 2 µM in experiment [3]; 1.5 µM in [4]; 12.5 µM in [5]; 17.8 µM in experiment [7]. For the same molecule, the GI50 in experiment [8] is 9.46 µM; in [9] it was 4.17 µM; in experiment [10] it was 15.1 µM. For the same molecule, the TGI in [1] was found to be 4.92 µM; in experiment [2], 6.47 µM; in [3], 3.82 µM; in [4] it was 3.34 µM; in experiment [5], 25 µM; in experiment [7], 42.4 µM. Besides, the figures for the TGI in [8], in experiment [9] and in experiment [10] were 21.5 µM, 15.9 µM and 29.5 µM, respectively.

For `CN(CCC(=O)/C(=C\c1ccccc1)c1ccc(Cl)cc1)Cc1ccccc1`, the GI50 is 2.5 µM in experiment [1]; 5.95 µM in [2]; 2.35 µM in [3]; 10.2 µM in experiment [5]; 2.94 µM in experiment [6]; 3.68 µM in experiment [7]. The GI50 in experiment [8] is 1.91 µM; in [9], 1.86 µM; in experiment [10], 2.44 µM. Moreover, the TGI in [1] was 9.01 µM; in [2] it was 34.5 µM; in [3] it was 5.73 µM; in experiment [5] it was 31.8 µM; in experiment [6], 8.62 µM; in experiment [7], over 100 µM. Further, the TGI in [8] came to 4.37 µM; in [9] it was 3.69 µM; in experiment [10], 5.53 µM.

For the molecule `N#CC(C#N)=C/C=C(\Sc1ccc(F)cc1Cl)c1ccc(Cl)cc1`, the GI50 in experiment [1] was 0.659 µM; in experiment [2], 0.52 µM; in experiment [3], 0.366 µM; in experiment [4], 0.318 µM; in [5] it was 10.3 µM; in experiment [6], 0.449 µM. Moreover, the GI50 is 0.791 µM in experiment [7], 2.18 µM in experiment [8] and 2.94 µM in experiment [9]. Moreover, the TGI in experiment [1] is 5.19 µM; in experiment [2], 49.2 µM; in experiment [3], 1.89 µM; in [4], 1.3 µM; in [5], 31 µM; in experiment [6], 2.49 µM. The TGI in [7] was 7.53 µM; in experiment [8], 6.16 µM; in [9], over 100 µM.

As to `CCCCNc1ccc(Nc2ccccc2)cc1`, the GI50 in experiment [1] is 1.65 µM; in experiment [2], 2.05 µM; in [3], 2.97 µM; in experiment [4] it was 5.85 µM; in experiment [5], 8.46 µM; in experiment [6] it was 3.15 µM. For the same molecule, the GI50 in [7] is 21.5 µM; in experiment [8], 8.2 µM; in experiment [10], 12.5 µM. Moreover, the TGI stood at 47 µM in experiment [1]; 5.35 µM in experiment [2]; 22.7 µM in experiment [3]; 21.5 µM in experiment [4]; 61.9 µM in experiment [5]; 43 µM in [6]. The TGI in experiment [7], in [8] and in [10] was over 100 µM throughout.
